Here are results for 7 molecules from US6060568A, “Carbene transition metal catalysts” (The Governors of the University of Alberta, priority 1999, dated 2000).

A short description of test [1]: Low temperature and pressure slurry polymerization on catalyst screening unit (CSU). To be noted: 10 psig. The method, then:
Low pressure and temperature slurry polymerization experiments were conducted on a catalyst screening unit (CSU) where polymerization occurs in a cyclohexane reaction media, ethylene is fed to the reactor on demand and is monitored by a mass flow meter. On the CSU, reaction temperatures are monitored and controlled by thermocouples and one RTD. Reactor temperature control is maintained by a HAAKE circulating water bath which has external thermostatic control via the thermocouple at the reactor core. Reactor temperature is maintained by the water from the bath entering the jacket-like coolant chamber surrounding the reactor. Reaction pressures are indicated by mechanical pressure gauges and monitored manually.
The CSU shares the purified ethylene and cyclohexane feeds with the solution semi-batch reactor (SBR). Ultra-High-Purity argon from PRAXAIR which is purified further by 13× and OXICLEAR on a separate gas purification unit is used for reactor system purging and solvent sparging. The polymerization products are quantitatively recovered for mass determination, and polymerization activities are then calculated based upon mass of product, millimoles of catalyst injected and reaction time.
Examples 25-32 were conducted on a catalyst screening unit (CSU).
Catalyst Concentration 50 μmol/L (Zr)
Catalyst Mole Ratio Al/Zr = 500/1
Polymethylaluminoxane (PMAO-IP)
Reaction Temperature Setpoint 35° C.
Reactor Pressure Setpoint 10 psig total
Stirring Speed ~2250 +/- 300 rpm Initially
Catalyst Concentration 50 μmol/L (M)
Catalyst Mole Ratio Al/B/M = 20/1.05/1
Modified Methylaluminoxane (MMAO-

Test [2] can be described thus: Solution phase ethylene polymerization, semi-batch reactor (SBR). The method, then: (§1) All the solution polymerization experiments described below were conducted using an Autoclave Engineers Zipperclave reactor (500 mL). All the chemicals (solvent, catalyst and cocatalyst) were fed into the reactor batchwise except ethylene which was fed on demand. No product was removed during the polymerization reaction. As are known to those skilled in the art, all the feed streams were purified prior to feeding into the reactor by contact with various absorption media to remove catalysts killing impurities such as water, oxygen, sulfur and polar materials. All components were stored and manipulated under an atmosphere of purified argon or nitrogen. The reactor uses a programmable logical control (PLC) system with Wonderware 5.1 s, oftware for the process control. Ethylene polymerizations were performed in the reactor equipped with an air driven stirrer and an automatic temperature control system.
The catalyst was dissolved in toluene. The polymerization reaction time is typically 10 minutes. The reaction was terminated by adding 5 mL of methanol to the reactor and the polymer was recovered by evaporation of the solvent. The polymerization activities were calculated based on the ethylene consumption.
Examples 1-18 were conducted on a solution semi-batch reactor (SBR).
SBR Experimental Conditions with MAO Activation
Catalyst Concentration 200 μmol/L
PMAO-IP Al/Zr = 300 (mol/mol)
Reaction Temperature 160° C.
Reactor Pressure 140 psig total
Stirring Speed 2000 rpm
SBR Experirimental Conditions with Trinitylborate Activation
PMAO-IP 1 mmol/L as impurity scavenger
^a SBR standard MAO screening conditions.
^b Insitu alkylation: PMAOIP (Al/M = 20) premixed with catalyst, the
mixture and tritylborate solution were injected into the reactor
^c SBR standard trityl borate screening conditions.
^d Premix catalyst and cocatalyst.
^e Zr(Bz)4 as scavenger at 1.2 mmol/L. […]

Test [3] in a line: Gas phase polymerization, supported catalyst, semi-batch gas phase reactor. Particulars: 200 psig, 90° C., 60 minutes; for Yield PE: 50-54 mg supported catalyst. From the text:
The catalyst preparation methods described below employ typical techniques for the syntheses and handling of air-sensitive materials. Standard Schlenk and drybox techniques were used in the preparation of ligands, metal complexes, support substrates and supported catalyst systems. Solvents were purchased as anhydrous materials and further treated to remove oxygen and polar impurities by contact with a combination of activated alumina, molecular sieves and copper oxide on silica/alumina. Where appropriate, elemental compositions of the supported catalysts were measured by Neutron Activation analysis and a reported accuracy of ±1% (weight basis).
The supported catalysts were prepared by initially supporting MAO on a silica support, followed by deposition of the catalyst component.
(§2) All the polymerization experiments described below were conducted using a semi-batch, gas phase polymerization reactor of total internal volume of 2.2 L. Reaction gas mixtures, including ethylene were measured to the reactor on a continuous basis using a calibrated thermal mass flow meter, following passage through purification media as described above. A pre-determined mass of the catalyst sample was added to the reactor under the flow of the inlet gas with no pre-contact of the catalyst with any reagent, such as a catalyst activator. The catalyst was activated in situ (in the polymerization reactor) at the reaction temperature in the presence of the monomer, using a metal alkyl complex which has been previously added to the reactor to remove adventitious impurities. Purified and rigorously anhydrous sodium chloride was used as a catalyst dispersing agent.
The internal reactor temperature is monitored by a thermocouple in the polymerization medium and can be controlled at the required set point to +/-1.0° C. The duration of the polymerization experiment was one hour. Following the completion of the polymerization experiment, the polymer was separated from the sodium chloride and the yield determined. The following table illustrates bench scale gas phase reaction conditions.
Solvent 5-10 mL hexane added with catalyst
Operating Mode Gas Phase
(§3) Aluminum alkyl 25-30 wt. % triisobutyl aluminum
(§4) Reaction Pressure 200 psig
(§5) Reaction Temperature 90° C.
(§6) Reaction Time 60 minutes
Examples 19-22 are examples of the gas phase polymerization. The next table illustrates data concerning the Al/transition metal ratios of the supported catalyst, polymer yield and polymer properties.

Test [4] is described as follows: High temperature and pressure slurry polymerization, supported catalyst. To be noted: slurry in hexane, 200 psig, 90° C., 60 minutes. As to the method:
The supported catalyst described in Part B was also used for the slurry polymerization tests.
as §2, with “a semi-batch” for “a semi-batch, gas phase polymerization”, “sample as” for “sample was”, “complex and solvent” for “complex”, “which have” for “which has”, “impurities.” for “impurities. Purified and rigorously anhydrous sodium chloride was used as a catalyst dispersing agent.”
The internal reactor temperature is monitored by a thermocouple in the polymerization medium and can be controlled at the required set point to +/-1.0° C. The duration of the polymerization experiment was one hour. Following the completion of the polymerization experiment, the slurry was transferred from the reactor to a bowl, and the solvent was left to evaporate. The following table illustrates bench scale slurry phase reaction conditions.
Operating Mode Slurry Phase
as §3, §4, §5, §6
Examples 23-24 are high pressure and temperature slurry polymerization examples. The next table illustrates data concerning the Al/transition metal ratios of the supported catalyst; polymer yield and polymer properties.

The nature of test [5]: Solution phase copolymerization of ethylene with 1-octene, semi-batch reactor (SBR). To be noted: [CPh3 ][B(C6 F5)4 ]; copolymerization with 20 mL of 1-octene; based on polymer weight. The method, then:
Polymer molecular weights and molecular weight distributions were measured by GPC (Waters 150-C) at 140° C. in 1,2,4-trichlorobenzene calibrated using polyethylene standards.
as §1
The catalyst was dissolved in toluene. The polymerization reaction time is typically 10 minutes. […] The polymerization activities were calculated based on the ethylene consumption. […]
were calculated based on polymer weight. 20.7 Br/1000 C detected by NMR […]

Setting [6] is: SBR standard MAO screening: PMAO-IP, Al/Zr = 300, 160° C., 140 psig.
Setting [7] is: MMAO-7/[CPh3 ][B(C6 F5)4 ], Al/B/M = 20/1.05/1, 35° C.
The mark [8] stands for this setting: SBR standard trityl borate screening: [CPh3 ][B(C6 F5)4 ], 160° C., 140 psig.
Setting [9] is: [CPh3 ][B(C6 F5)4 ], in situ alkylation, PMAO-IP (Al/M = 20) premixed with catalyst, 160° C.

On to `[Cl][Zr+2][Cl].c1cc[cH-]c1.c1cc[cH-]c1` [Cp2 ZrCl2, reference compound], for which the Activity in test [1] (PMAO-IP, Al/Zr = 500/1, 35° C.) is reported as 2692 gPE/mmol cat*hr; in test [2] (setting [6]), 1339.9 gPE/mmol cat*hr.

For the molecule [ZnMe{HC(Ph2 P=NSiMe3)2 }] [AK-17], the Activity in test [1] (setting [7]) amounted to 4 gPE/mmol cat*hr. Moreover, in test [2] (setting [8]), the Activity turned out to be 89.78 gPE/mmol cat*hr. In addition, in test [3], the Yield per catalyst turned out to be 0 gPE/g Catalyst, the Yield per metal is recorded as 0 gPE/g Metal and the “Yield PE” value worked out at 0 g.

As for “[ZrCl2 {(C(O)(NAd))C(Ph2 P=NSiMe3)2 }] [KB-103]”, the Activity in test [1] (PMAO-IP, Al/Zr = 500/1, 35° C.) is given as 0 gPE/mmol cat*hr; in test [2] (setting [6]) it was 129.0 gPE/mmol cat*hr; in test [2] (setting [9]) it was 498.7 gPE/mmol cat*hr. The Yield per catalyst in test [3] is listed as 8 gPE/g Catalyst. The Yield per metal in test [3] was determined as 1607 gPE/g Metal. Moreover, the “Yield PE” value in test [3] amounted to 0.4 g.

Take [ZrCl2 {C(Cy2 =NSiMe3)2 }] [Zr-3C]: the Activity in test [1] (PMAO-IP, Al/Zr = 500/1, 35° C.) was 0 gPE/mmol cat*hr; in test [2] (setting [6]), 22.7 gPE/mmol cat*hr; in test [2] (setting [9]) it was 70.6 gPE/mmol cat*hr.

Regarding [ZrCl2 {C(Ph2 P=NSiMe3)2 }] [Zr-3D], the Yield per catalyst in test [4] is 4 gPE/g Catalyst; in test [3], 0 gPE/g Catalyst. In addition, the Yield per metal turned out to be 915 gPE/g Metal in test [4] and 0 gPE/g Metal in test [3]. The figures for the “Yield PE” value in test [4] (122-137 mg supported catalyst) and in test [3] were 0.6 g and 0 g, respectively. The Activity in test [1] (PMAO-IP, Al/Zr = 500/1, 35° C.) came to 1 gPE/mmol cat*hr; in test [2] (setting [6]), 14.2 gPE/mmol cat*hr.

With [ZrMe2 {C(Cy2 =NSiMe3)2 }] [Zr-3C-Me2], the results for the Activity in test [5], in test [1] (setting [7]) and in test [2] (setting [8]) were 8.22 gPE/mmol cat*hr, 29 gPE/mmol cat*hr and 56.8 gPE/mmol cat*hr, respectively.

In the case of “[Zr{C(Ph2 P=NSimMe3)2 }(CH2 C6 H5)2 ] [Zr-6D]”, the Activity is 10.5 gPE/mmol cat*hr in test [5]; 13 gPE/mmol cat*hr in test [1] (PMAO-IP, Al/Zr = 500/1, 35° C.); 11.6 gPE/mmol cat*hr in test [2] (setting [8]); 14.4 gPE/mmol cat*hr in test [2] ([CPh3 ][B(C6 F5)4 ], Zr(Bz)4 as scavenger at 1.2 mmol/L, 160° C.); 42.7 gPE/mmol cat*hr in test [2] ([CPh3 ][B(C6 F5)4 ], premix catalyst and cocatalyst, 160° C.); 9.12 gPE/mmol cat*hr in test [2] (cocatalyst B(C6 F5)3, footnote c standard trityl borate screening conditions, 160° C.).
